In the assay the test system is cultured animal cells. Description: Functional assay of cytosolic delivery of a Morpholino antisense oligo (splice-correction luciferase system). Type of assay: cell-based. The following applies: all-histidine peptides. The source says: In contrast to the above design flexibility, the respective sizes of the lipophilic and weak-base faces of the delivery peptide have a substantial impact on that peptide's delivery efficiency. […] These assays utilized an established functional measurement of cytosolic delivery of a Morpholino antisense oligo in cultured cells (Kang, 1998). A representative test procedure of this type is described in Example 6, in a later section of his application.
The most definitive assessment of cytosolic delivery is one wherein when a cargo is delivered into the cytosol of a cell it generates a quantifiable signal proportional to the amount of cargo delivered into the cytosol. Also, for definitive results, that cargo should be completely stable within the cytosol so that increases due to delivery are not underestimated due to losses from degradation.
In the Kole test system (commercially available from GENE TOOLS, LLC, Philomath, Oreg.) a cell line has been stably transfected with a gene that codes for an RNA transcript that includes a mutation that generates a splicing error which acts to prevent the translation of luciferase coded by that RNA transcript. […] This leads to normal translation of the luciferase, and the light emission from that luciferase is readily quantitated in a luminometer. […]

For the substance poly-histidine, the “delivery of a Morpholino antisense oligo into the cytosol of cultured animal cells” value is given as “neither poly-histidine nor defined-length oligo-histidines achieved significant delivery”.
